Results from publication PMC11865978, “Cellular Activity of CQWW Nullomer-Derived Peptides” (ACS Omega, 2025).
Non-standard residues stand in square brackets, D forms with d. Residues, ends and D or L forms follow the SMILES beside them. No end group written: not given here.

Tests used:
[1] = tested on: GCGR-E13; assay type: cell-based, human; conditions: 72 h
Protocol: (§1) Peptides were tested in an automated image-based high-content[42] cell painting[43],[44] assay that was originally developed to explore the mechanism of action of pharmacological and genetic perturbations within cells,[45] as well as a live cell imaging assay against six patient-derived glioblastoma cell lines (GCGR-E13, GCGR-E28, GCGR-E21, GCGR-E57, GCGR-E31, and GCGR-E34), covering classical, mesenchymal, and proneural subtypes, respectively (see Methods and Figure 1B–D), along with a healthy human fetal neuronal stem cell line (GCGR-NS9FB_B).
(§2) Cell survival was quantified by nuclei counts from the Hoechst dye-stained nuclei and IC50 values calculated along with 95% confidence intervals (Figure 1B; see Table S2 for full details). […]
(§3) High Content Phenotypic Screening assays
(§4) Cell lines (glioma stem cell lines and normal foetal neural stem cells) were seeded on laminin (10 µg/mL) coated 384-well plates (Greiner Bio-One, 781091) at 1,000 cells/well and incubated overnight at 37 °C and 5% CO2. Aqueous peptide solutions (10 mM) were further diluted to 1 mM in water containing 10 % glycerol and 0.01 % TX-100. […]
(§5) The cells were placed in an IncuCyte live cell imager (Essen BioScience) and imaged every three hours for 72 hours. Prior to fixation, the plates were removed from the IncuCyte and stained with Mitrotracker DeepRed (Invitrogen, M22426, 300 nM, 30 minutes). Cells were then fixed using 4 % formaldehyde and permeabilized with 0.1 % TX-100 in PBS. The cells were stained with ‘Cell Painting’ […]
(§6) assay reagents1: Hoechst 33342 (10 mg/mL stock, Molecular Probes, 1:5000), SYTO14 […]
(§7) BSA/PBS. The plates were imaged using an ImageXpress high content microscope (Molecular Devices). Cells were imaged with a 20× objective, covering 6 fields-of-view in each well. The data was then analyzed using a custom CellProfiler software pipeline using the University of Edinburgh high performance computing cluster. Dose response plots were calculated using HC StratomineR (corelifeanalytics.com). Nuclei count data was analyzed separately to generate cell survival metrics (normalized to aqueous glycerol/TX -100 control). […]

[2] = tested on: GCGR-E21; assay type: cell-based, human; conditions: 72 h
Protocol: as §1, §2, §3, §4, §5, §6, §7

[3] = tested on: GCGR-E34; assay type: cell-based, human; conditions: 72 h
Protocol: as §1, §2, §3, §4, §5, §6, §7

[4] = tested on: GCGR-E28; assay type: cell-based, human; conditions: 72 h
Protocol: as §1, §2, §3
(§8) Cell lines (glioma stem cell lines and normal foetal neural stem cells) were seeded on laminin (10 µg/mL) coated 384-well plates (Greiner Bio-One, 781091) at 1,000 cells/well and incubated overnight at 37 °C and 5% CO2. Aqueous peptide solutions (10 mM) were further diluted to 1 mM in water containing 10 % glycerol and 0.01 % TX-100. Cells were dosed using a D300 digital dispenser (Tecan) by 10-point dose response (30 µM – 1 µM) in triplicate and with aqueous glycerol/TX-100 as control. The cells were placed in an IncuCyte live cell imager (Essen BioScience) and imaged every three hours for 72 hours. Prior to fixation, the plates were removed from the IncuCyte and stained with Mitrotracker DeepRed (Invitrogen, M22426, 300 nM, 30 minutes). Cells were then fixed using 4 % formaldehyde and permeabilized with 0.1 % TX-100 in PBS. The cells were stained with ‘Cell Painting’ […]
as §6, §7

[5] = tested on: GCGR-E31; assay type: cell-based, human; conditions: 72 h
Protocol: as §1, §2, §3, §8, §6, §7

[6] = tested on: GCGR-E57; assay type: cell-based, human; conditions: 72 h
Protocol: as §1, §2, §3, §8, §6, §7

[7] = tested on: GCGR-NS9FB_B; assay type: cell-based, human; conditions: 72 h
Protocol: as §1, §2, §3, §8, §6, §7

[8] = tested on: GSK-3; assay: Reverse phase protein array (RPPA); assay type: cell-based, human; conditions: peptides at 3 μM, 3 h and 24 h (peptide 7: 24 h only), seven cell lines; fold difference vs water control
Text: The phenotypic effect of the peptides was visualized by live cell imaging (Figure 1C, IncuCyte live cell imager) and also quantified via image analysis of cells labeled with the cell painting reagents (see Supporting Information) followed by image analysis using Cell Profiler (cellprofiler.org). Multiparametric outputs from Cell Profiler were processed using Phenonaut[46] [v 2.0.3] (see Jupyter notebook ‘Phenonaut_processing_of_nullomer_data.ipynb’ in the Aminonaut repository for methods and code used). […] Peptides 2, 5, and 7 were deemed to have the most merit for mode of action determination using reverse phase protein arrays (RPPAs) (see Supporting Information for methods). […]
growth and stemness was further supported by the addition of laminin extracellular matrix (Cultrex 3446-005-01, 4-10 mg/mL) to the growth media and to create pre-coated flasks/384w plates. Cells were cultured in T75 cm2 flasks and passaged as follows: Glioma stem cells generally grow slowly (~60hrs doubling time, excepting GCGR-E57 cells ~24hrs) and lag phase was exacerbated by sparse seeding. Cell confluence is generally ~80 -90% prior to passaging, whereby the culture media was aspirated, the cells washed (PBS) and Accutase solution (Sigma A6964, 1 mL) was added to detach the cells, which were then incubated at 37 °C for <5 minutes. Cells were resuspended in media and centrifuged for 3 minutes at 300 × g. Resuspended cells were typically split 1:5, 1:8 (GCGR-E57 cells) and 1:2, 1:4 for the remainder of cell lines, depending on requirements . Cells were passaged every 4-7 days to maintain health and growth and discarded after 3 months, whereupon a fresh batch of cells […]
Reverse Phase Protein Array (RPPA)
Culture media was aspirated and cells washed with wash media. Accutase solution (1mL) was used to detach the cells which were then incubated at 37 °C for 5 minutes. 10 mL of wash media was added, and the cells were pipetted into a 15 mL conical tube, after which they were centrifuged for 3 minutes at 300× g to form a pellet. Supernatant was aspirated, and cells resuspended in 5 mL of wash media. A 10 μL sample of the cell suspension was pipetted onto the reading surface of a DeNovix CellDrop automated cell counter and the reading was used to dilute the suspension in complete media to 250,000 cells/mL. 2 mL of this suspension was added to each well of 6-well plates to seed plates at 500,000 cells per well. 2 plates of each cell type (GCGR-E13, GCGR-E21, GCGR-E28, GCGR-E31, GCGR-E34, GCGR-E57 and GCGR-NS9FB_B) were seeded, one each for two nullomer dosage […]
timepoints (3 h and 24 h). The cells were incubated in the 6-well plates overnight, and dosing was carried out in the following morning. […]

[9] = tested on: NCI-60 panel; conditions: 60 cell lines from human cancers of nine organs; cited from earlier work
Text: (§9) Closely related to nullomer peptides, rarely observed amino acid stretches have also been studied by Capone et al., who assert that the minimal sufficient antigenic determinants of a protein could be encoded in just five rarely seen amino acids.[20] Complementing this, Patel et al. noted that these rare sequences could be used to enhance antigen-specific immune responses when dosed alongside adjuvant vaccines.[21] It was also noted by Koulouras et al. that human viruses rarely share human nullomers, facilitating host mimicry and immune evasion,[22] an interesting example of this being highligh ...

[10] = tested on: normal cell lines and cancer cell lines; conditions: cited from earlier work
Text: as §9

[11] = tested on: triple-negative breast cancer mouse model; conditions: cited from earlier work
Text: as §9

| Compound | IC50 [1] | IC50 [2] | IC50 [3] | IC50 [4] | IC50 [5] | IC50 [6] | IC50 [7] | GSK-3 regulation in RPPA [8] | lethal effect on NCI-60 panel [9] | mitochondrial impairment [10] | gene expression by transcriptomics in triple-negative breast cancer mouse model [11] |
| --- | --- | --- | --- | --- | --- | --- | --- | --- | --- | --- | --- |
| N=C(N)NCCC[C@H](NC(=O)[C@H](CCCNC(=N)N)NC(=O)[C@H](CCCNC(=N)N)NC(=O)[C@@H](N)CCCNC(=N)N)C(=O)N[C@@H](CCCNC(=N)N)C(=O)N[C@H](CS)C(=O)N[C@H](CCC(N)=O)C(=O)N[C@H](Cc1c[nH]c2ccccc12)C(=O)N[C@H](Cc1c[nH]c2ccccc12)C(N)=O [Peptide 3] (H-RRRRR[dC][dQ][dW][dW]-NH2) | 6.9 µM | 7.5 µM | 5.3 µM | 8.4 µM | 8.7 µM | 5.4 µM | 9.7 µM | downregulation of GSK-3 | – | – | – |
| N=C(N)NCCC[C@H](NC(=O)[C@H](CCCNC(=N)N)NC(=O)[C@H](CCCNC(=N)N)NC(=O)[C@@H](N)CCCNC(=N)N)C(=O)N[C@@H](CCCNC(=N)N)C(=O)N[C@H](Cc1c[nH]c2ccccc12)C(=O)N[C@H](Cc1c[nH]c2ccccc12)C(=O)N[C@H](CCC(N)=O)C(=O)N[C@H](CS)C(N)=O [Peptide 5] (H-RRRRR[dW][dW][dQ][dC]-NH2) | 13.6 µM | 16.3 µM | 17.6 µM | 13.2 µM | 15.7 µM | 9.9 µM | 15.9 µM | downregulation of GSK-3β | – | – | – |
| NWMWC [pentamer peptide nullomer of Alileche et al] | – | – | – | – | – | – | – | – | lethal to a high fraction of oncogenic cell lines | caused mitochondrial impairment in both normal cell lines and cancer cell lines | – |
| RRRRRCAWW-NH2 [Peptide 7] | 10.6 µM | 11.2 µM | 6 µM | 9.7 µM | 12.1 µM | 6.3 µM | 11.9 µM | downregulation of GSK-3β | – | – | – |
| RRRRRCQWA-NH2 [Peptide 9] | > 30 µM | > 30 µM | 15.8 µM | > 30 µM | > 30 µM | > 30 µM | > 30 µM | – | – | – | – |
| RRRRRFQWW-NH2 [Peptide 13] | 52 µM | 81.3 µM | > 100 µM | 29.6 µM | 101 µM | 55.7 µM | – | – | – | – | – |
| WCMNW [permutation of pentamer nullomer NWMWC, Alileche et al] | – | – | – | – | – | – | – | – | lethal to a high fraction of oncogenic cell lines | caused mitochondrial impairment in both normal cell lines and cancer cell lines | downregulation of key genes involved in the mitochondrial TCA cycle |

Now from value to compound, other results behind:

| IC50 [1] | IC50 [2] | IC50 [3] | IC50 [4] | IC50 [5] | IC50 [6] | Compound | IC50 [7] | GSK-3 regulation in RPPA [8] | lethal effect on NCI-60 panel [9] | mitochondrial impairment [10] | gene expression by transcriptomics in triple-negative breast cancer mouse model [11] |
| --- | --- | --- | --- | --- | --- | --- | --- | --- | --- | --- | --- |
| – | – | 15.8 µM | – | – | – | RRRRR-NH2 [Peptide 15, reference compound] | – | – | – | – | – |
| 151 µM | 279 µM | – | 86 µM | – | – | RRRRRAQWW-NH2 [Peptide 6] | – | – | – | – | – |
| 100 µM | 75 µM | 100 µM | 100 µM | 238 µM | 100 µM | RRRRRCQAW-NH2 [Peptide 8] | 100 µM | – | – | – | – |
| > 100 µM | > 100 µM | 154 µM | 168 µM | > 100 µM | 108 µM | RRRRRCQW-NH2 [Peptide 10] | – | – | – | – | – |
| 52 µM | 132 µM | > 100 µM | 58 µM | 123 µM | 119 µM | RRRRRHQWW-NH2 [Peptide 14] | – | – | – | – | – |
| 117 µM | 122 µM | > 100 µM | 100 µM | 59.7 µM | > 100 µM | RRRRRMQWW-NH2 [Peptide 12] | – | – | – | – | – |
| 110 µM | 158 µM | 114 µM | 72.6 µM | 74.3 µM | 99.5 µM | RRRRRQWW-NH2 [Peptide 11] | – | – | – | – | – |
| 13.1 µM | 12.8 µM | 8.6 µM | 10.9 µM | 11.8 µM | 9 µM | RRRRRWWQC-NH2 [Peptide 4] | 13.8 µM | – | – | – | – |
